Experimental data: US7348347B2, “Substituted 4,5,6,7-tetrahydrobenzthiazol-2-ylamine compounds” (Gruenenthal GmbH, priority 2004, dated 2008)

Molecular target: T1, 5-HT uptake (Rattus norvegicus, UniProt P31652)
T1 construct: from tissue; host or cells: rat brain synaptosomes (P2 fraction) from marrow (medulla) and pons
Assay: Inhibition of 5-HT uptake in rat brain synaptosomes
Format: biochemical
Settings: [3H]-5-HT
Experimental: The relevant literature reference is enclosed herein by reference and is to be regarded as part of the disclosure.
The homogenate is centrifuged at 4° C. for 10 minutes at 1000 g. Following subsequent centrifugation at 17,000 g for 55 minutes, the synaptosomes (P2 fraction) are obtained, which are then resuspended in 0.32 M […] (0.5 mL/100 mg of the original weight).
The respective uptake was measured in a 96 well microtiter plate. The volume was 250 μL and the incubation was carried out at room temperature (ca 20-25° C.) under a blanket of oxygen.
The 96 samples through were then filtered through a Unifilter GF/B® microtiter plate (Packard) and washed with 200 mL of incubated buffer with the aid of a “Brabdel Cell-Harvester MPXRI 96T”. The Unifilter GF/B plate was dried at 55° C. over a period of 1 h. The plate was then sealed with a back seal® (Packard) and there were then added 35 μL of scintillant fluid per well (Ultima Gold, Packard).
A detailed description of the method is disclosed in the literature, for example, in M. Ch.

[1] = rat synaptosomes (medulla and pons)

T1 sequence (P31652 whole entry): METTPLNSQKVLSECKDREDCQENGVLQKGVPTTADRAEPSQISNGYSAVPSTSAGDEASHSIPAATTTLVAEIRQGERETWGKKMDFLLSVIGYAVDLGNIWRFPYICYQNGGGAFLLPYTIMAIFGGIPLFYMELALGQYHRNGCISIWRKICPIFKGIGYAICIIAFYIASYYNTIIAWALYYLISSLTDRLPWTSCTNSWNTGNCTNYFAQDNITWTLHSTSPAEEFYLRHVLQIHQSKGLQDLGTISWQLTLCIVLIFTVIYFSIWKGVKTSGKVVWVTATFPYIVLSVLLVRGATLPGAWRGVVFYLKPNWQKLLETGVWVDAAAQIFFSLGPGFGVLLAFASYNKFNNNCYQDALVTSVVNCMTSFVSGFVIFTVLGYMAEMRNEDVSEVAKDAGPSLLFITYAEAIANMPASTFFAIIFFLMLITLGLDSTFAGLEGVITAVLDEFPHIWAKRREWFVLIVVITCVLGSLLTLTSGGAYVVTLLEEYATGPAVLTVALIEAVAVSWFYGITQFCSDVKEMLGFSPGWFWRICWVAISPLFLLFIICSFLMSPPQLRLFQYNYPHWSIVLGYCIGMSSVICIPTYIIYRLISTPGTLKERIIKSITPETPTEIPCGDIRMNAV

Compound | inhibition at 10 µM [1] | % Inhibition of 5-HT uptake [10 μM] [1] | also measured
2-[2-(3,5-Difluorophenyl)acetylamino]-4,5,6,7-tetrahydrobenzthiazol-4-carboxylic acid[1-(2-ethoxybenzyl)pyrrolidin-3-yl]methylamide [Example 44] |  |  | % Inhibition of 5-HT uptake [10 μM] (rat synaptosomes (and pons)): 41%
CN(C)CCN1CCN(C(=O)C2CCCc3sc(NC(=O)CC4CCCCC4)nc32)CC1 (stereo not shown) [Example 1, 2-Cyclohexyl-N-{4-[4-(2-Dimethylaminoethyl)piperazin-1-carbonyl]-4,5,6,7-tetrahydrobenzthiazol-2-yl}acetamide] | 65% |  | 
CN1CCCN(C(=O)C2CCCc3sc(NC(=O)COc4ccccc4)nc32)CC1 (stereo not shown) [Example 2, N-[4-(4-Methyl-[1,4]diazepam-1-carbonyl)-4,5,6,7-tetrahydrobenzthiazol-2-yl]-2-phenoxy acetamide] |  |  | % Inhibition of 5-HT uptake [10 μM] (rat synaptosomes (and pons)): 58%
CN1CCN(C(=O)C2CCCc3sc(NC(=O)c4ccc5ccccc5c4)nc32)CC1 (stereo not shown) [Example 4, Naphthalene-2-carboxylic acid[4-(4-methylpiperazin-1-carbonyl)-4,5,6,7-tetrahydrobenzthiazol-2-yl]amide] |  | 48% | 
O=C(Cc1cccs1)Nc1nc2c(s1)CCCC2C(=O)N1CCCC1CN1CCCC1 (stereo not shown) [Example 5, N-[4-(2-Pyrrolidin-1-ylmethylpyrrolidin-1-carbonyl)-4,5,6,7-tetrahydrobenzthiazol-2-yl]-2-thiophen-2-ylacetamide] | 41% |  | 
COc1ccccc1CC(=O)Nc1nc2c(s1)CCCC2C(=O)N1CCN(Cc2cc(OC)c3c(c2)OCO3)CC1 (stereo not shown) [Example 6, N-{4-[4-(7-Methoxybenzo[1, 3]dioxol-5-ylmethyl)piperazin-1-carbonyl]-4,5,6,7-tetrahydrobenzthiazol-2-yl}-2-(2-methoxyphenyl)acetamide] | 51% |  | 
CC1CCCCN1CCCNC(=O)C1CCCc2sc(NC(=O)C=Cc3ccco3)nc21 (stereo not shown) [Example 23, 2-(3-Furan-2-ylacryloylamino)-4,5,6,7-tetrahydrobenzthiazol-4-carboxylic acid [3-(2-methylpiperidin-1-yl)propyl]amid] | 57% |  | 
CN(C)CCCNC(=O)C1CCCc2sc(NC(=O)CC(C)(C)C)nc21 (stereo not shown) [Example 24, 2-(3,3-Dimethylbutyrylamino)-4,5,6,7-tetrahydrobenzthiazol-4-carboxylic acid(3-dimethylaminopropyl)amide] | 89% |  | 
COc1ccc(C(=O)Nc2nc3c(s2)CCCC3C(=O)N2CCN(Cc3ccc(Cl)cc3)CC2)cc1 (stereo not shown) [Example 25, N-{4-[4-(4-Chlorobenzyl)piperazin-1-carbonyl]-4,5,6,7-tetrahydrobenzthiazol-2-yl}-4-methoxybenzamide] | 53% |  | 
O=C(Nc1nc2c(s1)CCCC2C(=O)N1CCCC1CN1CCCC1)c1ccc2ccccc2c1 (stereo not shown) [Example 26, Naphthalene-2-carboxylic acid[4-(2-pyrrolidin-1-ylmethylpyrrolidin-1-carbonyl)-4,5,6,7-tetrahydrobenzthiazol-2-yl]amide] |  | 80% | 
CN(C)CCNC(=O)C1CCCc2sc(NC(=O)COc3ccccc3)nc21 (stereo not shown) [Example 30, 2-(2-Phenoxyacetylamino)-4,5,6,7-tetrahydrobenzthiazol-4-carboxylic acid(2-dimethylaminoethyl)amide] |  | 64% | 
CCOc1ccccc1C(=O)Nc1nc2c(s1)CCCC2C(=O)N1CCCC1CN1CCCC1 (stereo not shown) [Example 31, 2-Ethoxy-N-[4-(2-pyrrolidin-1-ylmethylpyrrolidin-1-carbonyl)-4,5,6,7-tetrahydrobenzthiazol-2-yl]benzamide] | 59% |  | 
O=C(Nc1nc2c(s1)CCCC2C(=O)N1CCN(CC(=O)N2CCCC2)CC1)c1ccc2ccccc2c1 (stereo not shown) [Example 32, Naphthalene-2-carboxylic acid{4-[4-(2-oxo-2-pyrrolidin-1-ylethyl)piperazin-1-carbonyl]-4,5,6,7-tetrahydrobenzthiazol-2-yl}amide] |  | 51% | 
Cc1cc(C)cc(C(=O)Nc2nc3c(s2)CCCC3C(=O)NC2CCN(Cc3ccccc3SC(C)(C)C)C2)c1 (stereo not shown) [Example 35] |  | 41% | 
CC=CC=CC(=O)Nc1nc2c(s1)CCCC2C(=O)NCC1CCN(Cc2ccc(-c3ccccc3)cc2)C1 (stereo not shown) [Example 37, 2-Hexa-2,4-dienoylamino-4,5,6,7-tetrahydrobenzthiazol-4-carboxylic acid (1-biphenyl-4-ylmethylpyrrolidin-3-yl)methylamide] | 44% |  | 
CCCCCCNc1nc2c(s1)CCCC2C(=O)N(C)C1CCN(Cc2cc3ccccc3o2)C1 (stereo not shown) [Example 41, 2-Hexanylamino-4,5,6,7-tetrahydrobenzthiazol-4-carboxylic acid(1-benzofuran-2-ylmethylpyrrolidin-3-yl)methylamide] |  | 77% | 

Compound | inhibition at 10 µM [1] | % Inhibition of 5-HT uptake [10 μM] [1] | also measured
CC1CCCCN1CCCNC(=O)C1CCCc2sc(NC(=O)COc3ccccc3)nc21 (stereo not shown) [Example 42, 2-(2-Phenoxyacetylamino)-4,5,6,7-tetrahydrobenzthiazol-4-carboxylic acid[3-(2-methylpiperidin-1-yl)propyl]amide] |  | 42% | 
O=C(Nc1nc2c(s1)CCCC2C(=O)NCCN1CCCC1)c1ccc2ccccc2c1 (stereo not shown) [Example 43, 2-[(Naphthalene-2-carbonyl)amino]-4,5,6,7-tetrahydrobenzthiazol-4-carboxylic acid (2-pyrrolidin-1-ylethyl)amide] | 63% |  | 
CN(C)c1ccc(CNC(=O)C2CCCc3sc(NC(=O)c4ccc5ccccc5c4)nc32)cc1 (stereo not shown) [Example 45, 2-[(Naphthalene-2-carbonyl)amino]-4,5,6,7-tetrahydrobenzthiazol-4-carboxylic acid 4-dimethylaminobenzylamide] | 42% |  | 
CN1CCCC1CCNC(=O)C1CCCc2sc(NC(=O)COc3ccc(F)cc3)nc21 (stereo not shown) [Example 46, 2-[2-(4-Fluorophenoxy)acetylamino]-4,5,6,7-tetrahydrobenzthiazol-4-carboxylic acid[2-(1-methylpyrrolidin-2-yl)ethyl]amide] |  | 53% | 
CCOc1ccccc1CN1CCC(CNC(=O)C2CCCc3sc(NC(=O)COc4ccccc4)nc32)C1 (stereo not shown) [Example 51, 2-(2-Phenoxyacetylamino)-4,5,6,7-tetrahydrobenzthiazol-4-carboxylic acid[1-(2-ethoxybenzyl)pyrrolidin-3-yl]methylamide] |  | 59% | 
O=C(Nc1nc2c(s1)CCCC2C(=O)N1CCN(Cc2ccccc2F)CC1)c1ccc2ccccc2c1 (stereo not shown) [Example 53, Naphthalene-2-carboxylic acid{4-[4-(2-fluorobenzyl)piperazin-1-carbonyl]-4,5,6,7-tetrahydrobenzthiazol-2-yl}amide] |  | 42% | 
O=C(Cc1cc(F)cc(F)c1)Nc1nc2c(s1)CCCC2C(=O)N1CCCC1CN1CCCC1 (stereo not shown) [Example 57, 2-(3,5-Difluorophenyl)-N-[4-(2-pyrrolidin-1-ylmethylpyrrolidin-1-carbonyl)-4,5,6,7-tetrahydrobenzthiazol-2-yl]acetamide] | 72% |  | 
CCCCCC(=O)Nc1nc2c(s1)CCCC2C(=O)N1CCN(Cc2ccc(OC)c(F)c2)CC1 (stereo not shown) [Example 59, Hexanoic acid{4-[4-(3-fluoro-4-methoxybenzyl)piperazin-1-carbonyl]-4,5,6,7-tetrahydrobenzthiazol-2-yl}amide] |  | 46% | 
O=C(Cc1cc(F)cc(F)c1)Nc1nc2c(s1)CCCC2C(=O)NCC1CCN(Cc2c(Cl)cccc2Cl)C1 (stereo not shown) [Example 62, 2-[2-(3,5-Difluorophenyl)acetylamino]-4,5,6,7-tetrahydrobenzthiazol-4-carboxylic acid[1-(2,6-dichlorobenzyl)pyrrolidin-3-yl]methylamide] |  | 53% | 
CCCCCC(=O)Nc1nc2c(s1)CCCC2C(=O)N1CCN(Cc2cc3ccccc3o2)CC1 (stereo not shown) [Example 65, Hexanoic acid[4-(4-benzofuran-2-ylmethylpiperazin-1-carbonyl)-4,5,6,7-tetrahydrobenzthiazol-2-yl]amide] |  | 44% | 
CN(CCCNC(=O)C1CCCc2sc(NC(=O)CC3CCCCC3)nc21)c1ccccc1 (stereo not shown) [Example 68, 2-(2-Cyclohexylacetylamino)-4,5,6,7-tetrahydrobenzthiazol-4-carboxylic acid [3-(methylphenyl-amino)propyl]amide] | 84% |  | 
CCOc1ccccc1C(=O)Nc1nc2c(s1)CCCC2C(=O)NCCCN(C)c1ccccc1 (stereo not shown) [Example 69, 2-(2-Ethoxybenzoylamino)-4,5,6,7-tetrahydrobenzthiazol-4-carboxylic acid[3-(methylphenyl-amino)propyl]amide] |  | 80% | 
O=C(CCc1ccccc1)Nc1nc2c(s1)CCCC2C(=O)N1CCN(c2ccc(C(F)(F)F)cn2)CC1 (stereo not shown) [Example 70, 3-Phenyl-N-{4-[4-(5-trifluoromethylpyridin-2-yl)piperazin-1-carbonyl]-4,5,6,7-tetrahydrobenzthiazol-2-yl}propionamide] | 44% |  | 
O=C(Cc1cc(F)cc(F)c1)Nc1nc2c(s1)CCCC2C(=O)N1CCN(c2cccc(C(F)(F)F)c2)CC1 (stereo not shown) [Example 74, 2-(3,5-Difluorophenyl)-N-{4-[4-(3-trifluoromethylphenyl)piperazin-1-carbonyl]-4,5,6,7-tetrahydrobenzthiazol-2-yl}acetamide] | 82% |  | 
O=C(C=Cc1ccco1)Nc1nc2c(s1)CCCC2C(=O)N1CCN(c2cccc(C(F)(F)F)c2)CC1 (stereo not shown) [Example 76, 3-Furan-2-yl-N-{4-[4-(3-trifluoromethylphenyl)piperazin-1-carbonyl]-4,5,6,7-tetrahydrobenzthiazol-2-yl}acrylamide] | 62% |  | 
